According to US20220170081A1, “METHOD FOR DETECTING TARGET NUCLEIC ACID AND KIT” (CANON KABUSHIKI KAISHA, priority 2020, published 2022):

Tests used:
[1] = pH of binding buffer when amino compounds were added; assay type: physicochemical; details: FIG. 11
Description: Change in the pH when the concentration of each of spermidine·3HCl, spermine, and 1,3-diaminopropane added to binding buffer was changed was evaluated. Binding buffer was used for a reaction buffer.

EnGen Lba Cas12a (Cpf1) = experiment: Experiment of cleavage activity of Cas12a (trans-cleavage of fluorescent reporter molecule); assay type: biochemical; details: for rising of fluorescence compared with no addition: addition concentration 12 mM; for addition concentration at which an effect of facilitating the reaction was observed: concentration changed between 0 to 12 mM, FIGS. 4A to 4E
Description: (§1) Thereafter, in a 96-well plate (137101, Thermo Fisher Scientific), binding buffer, various additives, a reporter molecule, and water were added, the total volume was adjusted to 80 μL, and the fluorescence intensity was measured every 2 min at 37° C. for 1 to 2 hours by using a fluorescent plate reader Synergy MX (BioTec). Regarding the measurement wavelength, for HiLyte488, an excitation wavelength of 485±20 nm and a fluorescence wavelength of 528±20 nm were used. For the IDT reporter, an excitation wavelength of 535±20 nm and a fluorescence wavelength of 595±20 nm were used. For a reporter marked with Cy5 or Alexa Fluor 647, an excitation wavelength of 620±20 nm and a fluorescence wavelength of 680±20 nm were used.
FIGS. 1A and 1B illustrate a change over time in the ratio of the fluorescence intensity of the IDT reporter to the fluorescence intensity of an internal standard dye Hilyte488.

[2] = target: Alt-R A.s. Cas12a (Cpf1) Ultra (Acidaminococcus sp., UniProt U2UMQ6, F870L/M537R); details: spermine 2.0 mM; NEBuffer 2.1; various concentrations of Tween 20 and BSA; FIG. 2B
Description: as §1, with “A ternary complex was formed by mixing 400-nM Cas12a, 500-nM crRNA, and a predetermined concentration of target DNA at a volume ratio of 1:1:2 and performing incubation at 37° C. for 30 to 60 minutes. Thereafter,” for “Thereafter,”

[3] = target: Alt-R A.s. Cas12a (Cpf1) Nuclease V3 (Acidaminococcus sp., UniProt U2UMQ6); details: spermine 2.0 mM; NEBuffer 2.1; various concentrations of Tween 20 and BSA; FIG. 2A
Description: as §1, with “A ternary complex was formed by mixing 400-nM Cas12a, 500-nM crRNA, and a predetermined concentration of target DNA at a volume ratio of 1:1:2 and performing incubation at 37° C. for 30 to 60 minutes. Thereafter,” for “Thereafter,”

SMILES	change in the pH of binding buffer with addition concentration [1]	rising of fluorescence compared with no addition (EnGen Lba Cas12a (Cpf1))	addition concentration at which an effect of facilitating the reaction was observed (EnGen Lba Cas12a (Cpf1)) [mM]	effect of amino compound on cleavage reaction of Cas12a (ratio of IDT reporter fluorescence to Hilyte488) (EnGen Lba Cas12a (Cpf1); 2.0 mM, binding buffer and NEBuffer 2.1, 0.5% Tween 20 + 0.3% BSA or 1.5% Tween + 0.6% BSA, 1 nM target DNA)	effect on cleavage reaction with respect to ten types of reporter molecules (EnGen Lba Cas12a (Cpf1); 2.0 mM, binding buffer, all reporter molecules of Table 1, FIG. 3B)	effect of facilitating the reaction (EnGen Lba Cas12a (Cpf1); 7.8 mM (FIG. 5A) or 1.4 mM (FIGS. 5B and 5C), binding buffer, IDT reporter)	cleavage activity against the reporter molecule depending on timing of addition of amino compound (EnGen Lba Cas12a (Cpf1); final 2.0 mM, conditions 1 to 6, binding buffer, FIGS. 9A to 9C)	effect of amino compound on cleavage reaction (EnGen Lba Cas12a (Cpf1); spermine 2.0 mM, NEBuffer 2.1, various concentrations of Tween 20 and BSA, FIG. 2C)	effect of amino compound on cleavage reaction [2]	effect of amino compound on cleavage reaction [3]
NCCCN [1,3-diaminopropane]	the pH increased with increasing the addition concentration	–	–	–	–	–	–	–	–	–
NCCCCNCCCN [spermidine]	–	the rising of fluorescence equivalent to that in the instance of no addition	≥ 0.2	–	–	–	–	–	–	–
Cl.Cl.Cl.NCCCCNCCCN [spermidine·3HCl, spermidine trihydrochloride]	the pH hardly changed	–	–	–	–	–	–	–	–	–
NCCCNCCCCNCCCN [spermine]	the pH increased with increasing the addition concentration	the rising of fluorescence was reduced compared with the instance of no addition	≤ 7.8	facilitated the reaction	the effect of facilitating the reaction by addition of the amino compound was ascertained	a high effect of facilitating the reaction	higher under condition 2, condition 4, and condition 6	the reaction was facilitated	the reaction was facilitated	the reaction was facilitated
